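GI50: concentration for 50% inhibition of growth. TGI marks complete inhibition of growth.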
How the values were obtained:
Experiment in all cases: NCI anticancer screen, dose series, 384-well format
[1] = system: PC-3 prostate
[2] = system: SW-620 colon
[3] = system: MOLT-4 leukemia
[4] = system: MALME-3M melanoma
[5] = system: NCI-H226 lung
[6] = system: NCI-H460 NSCLC
[7] = system: OVCAR-3 ovarian
[8] = system: ACHN renal
[9] = system: HCT-15 colon
[10] = system: SF-268 CNS
[11] = system: HL-60(TB) leukemia
[12] = system: A549 NSCLC
[13] = system: MDA-MB-468 breast
[14] = system: HOP-62 NSCLC
[15] = system: SK-MEL-28 melanoma
[16] = system: SNB-19 CNS
[17] = system: HCC-2998 colon
[18] = system: 786-0 renal
[19] = system: SR leukemia
[20] = system: A498 renal
[21] = system: BT-549 breast
[22] = system: SNB-75 CNS
[23] = system: COLO 205 colon
[24] = system: SF-539 CNS
[25] = system: OVCAR-4 ovarian
[26] = system: U251 glioblastoma
[27] = system: SK-MEL-5 melanoma
[28] = system: MDA-MB-435 melanoma
[29] = system: SK-OV-3 ovarian
[30] = system: DU-145 prostate
[31] = system: OVCAR-8 ovarian
[32] = system: NCI-H23 lung
[33] = system: NCI/ADR-RES ovarian
[34] = system: LOX IMVI melanoma
[35] = system: HCT-116 colon
[36] = system: UACC-62 melanoma
[37] = system: MCF7 breast
[38] = system: HS 578T breast
[39] = system: T-47D breast
[40] = system: KM12 colon
[41] = system: OVCAR-5 ovarian
[42] = system: CAKI-1 renal
[43] = system: RPMI-8226 leukemia
[44] = system: MDA-MB-231 breast
[45] = system: NCI-H522 lung
[46] = system: SF-295 CNS
[47] = system: HT29 colon
[48] = system: UO-31 renal
[49] = system: NCI-H322M lung
[50] = system: TK-10 renal
[51] = system: SN12C renal
[52] = system: EKVX NSCLC
[53] = system: UACC-257 melanoma
[54] = system: HOP-92 NSCLC
[55] = system: IGROV1 ovarian
[56] = system: M14 melanoma
[57] = system: RXF 393 renal

Compound: Cc1ccc(C(=O)Nc2ccc(CN3CCN(C)CC3)c(C(F)(F)F)c2)cc1C#Cc1cnc2cccnn12
- GI50 [1]: 0.872 µM
- TGI [1]: 2.07 µM
- GI50 [2]: 0.399 µM
- TGI [2]: 1.48 µM
- GI50 [3]: 0.203 µM
- TGI [3]: 0.619 µM
- GI50 [4]: 0.104 µM
- TGI [4]: 0.226 µM
- GI50 [5]: 0.0476 µM
- TGI [5]: 0.24 µM
- GI50 [6]: 0.396 µM
- TGI [6]: 1.51 µM
- GI50 [7]: 0.374 µM
- TGI [7]: 1.37 µM
- GI50 [8]: 0.21 µM
- TGI [8]: 0.685 µM
- GI50 [9]: 0.265 µM
- TGI [9]: 1.02 µM
- GI50 [10]: 0.222 µM
- TGI [10]: 0.844 µM
- GI50 [11]: 0.163 µM
- TGI [11]: 0.32 µM
- GI50 [12]: 0.361 µM
- TGI [12]: 1.25 µM
- GI50 [13]: 0.563 µM
- TGI [13]: 1.58 µM
- GI50 [14]: 0.403 µM
- TGI [14]: 1.38 µM
- GI50 [15]: 0.362 µM
- TGI [15]: 1.27 µM
- GI50 [16]: 1.27 µM
- TGI [16]: 2.56 µM
- GI50 [17]: 0.5 µM
- TGI [17]: 1.29 µM
- GI50 [18]: 0.339 µM
- TGI [18]: 1.06 µM
- GI50 [19]: 0.521 µM
- TGI [19]: 0.801 µM
- GI50 [20]: 0.39 µM
- TGI [20]: 1.31 µM
- GI50 [21]: 0.309 µM
- TGI [21]: 1 µM
- GI50 [22]: 0.217 µM
- TGI [22]: 0.79 µM
- GI50 [23]: 0.348 µM
- TGI [23]: 1.44 µM
- GI50 [24]: 0.109 µM
- TGI [24]: 0.245 µM
- GI50 [25]: 0.538 µM
- TGI [25]: 1.82 µM
- GI50 [26]: 0.492 µM
- TGI [26]: 1.61 µM
- GI50 [27]: 0.17 µM
- TGI [27]: 0.373 µM
- GI50 [28]: 0.425 µM
- TGI [28]: 1.34 µM
- GI50 [29]: 0.297 µM
- TGI [29]: 1.21 µM
- GI50 [30]: 0.345 µM
- TGI [30]: 1.19 µM
- GI50 [31]: 0.344 µM
- TGI [31]: 1.22 µM
- GI50 [32]: 0.246 µM
- TGI [32]: 0.797 µM
- GI50 [33]: 0.315 µM
- TGI [33]: 1 µM
- GI50 [34]: 0.153 µM
- TGI [34]: 0.307 µM
- GI50 [35]: 0.193 µM
- TGI [35]: 0.541 µM
- GI50 [36]: 0.144 µM
- TGI [36]: 0.745 µM
- GI50 [37]: 0.56 µM
- TGI [37]: 1.83 µM
- GI50 [38]: 0.107 µM
- TGI [38]: 0.29 µM
- GI50 [39]: 0.608 µM
- TGI [39]: 1.81 µM
- GI50 [40]: 0.046 µM
- TGI [40]: 1.38 µM
- GI50 [41]: 0.516 µM
- TGI [41]: 1.68 µM
- GI50 [42]: 0.21 µM
- TGI [42]: 0.504 µM
- GI50 [43]: 0.288 µM
- TGI [43]: 0.76 µM
- GI50 [44]: 0.171 µM
- TGI [44]: 0.399 µM
- GI50 [45]: 0.147 µM
- TGI [45]: 0.582 µM
- GI50 [46]: 1.08 µM
- TGI [46]: 2.27 µM
- GI50 [47]: 0.221 µM
- TGI [47]: 0.607 µM
- GI50 [48]: 0.392 µM
- TGI [48]: 1.15 µM
- GI50 [49]: 0.275 µM
- TGI [49]: 0.692 µM
- GI50 [50]: 0.737 µM
- TGI [50]: 1.97 µM
- GI50 [51]: 0.324 µM
- TGI [51]: 1.1 µM
- GI50 [52]: 0.574 µM
- TGI [52]: 1.78 µM
- GI50 [53]: 0.222 µM
- TGI [53]: 0.419 µM
- GI50 [54]: 0.249 µM
- TGI [54]: 0.58 µM
- GI50 [55]: 0.18 µM
- TGI [55]: 0.558 µM
- GI50 [56]: 0.167 µM
- TGI [56]: 0.573 µM
- GI50 [57]: 0.284 µM
- TGI [57]: 0.621 µM

From PubChem BioAssay (NCI)
